Measurements as given in ChEMBL document CHEMBL1126778, “Adenosine A1 antagonists. 3. Structure-activity relationships on amelioration against scopolamine- or N6-((R)-phenylisopropyl)adenosine-induced cognitive disturbance” (J Med Chem, 1993).
pKi: −log10 of the molar value.

Assays:
Mus musculus [1] = assay: Acquisition time in (R)-PIA) induced avoidance test (performed in mice) for antagonistic activity after peroral administration of 0.08 mg/kg (n=15); type: functional; details: route oral
Mus musculus [2] = assay: Acquisition time in (R)-PIA) induced avoidance test (performed in mice) for antagonistic activity after peroral administration of 0.31 mg/kg (n=15); type: functional; details: route oral
Mus musculus [3] = assay: Acquisition time in (R)-PIA) induced avoidance test (performed in mice) for antagonistic activity after peroral administration of 1.25 mg/kg (n=15); type: functional; details: route oral
Mus musculus [4] = assay: Retention time in (R)-PIA) induced avoidance test (performed in mice) for antagonistic activity after peroral administration of 1.25 mg/kg (n=15) (P<0.01); type: functional, organism-based; parameters: dose 1.25 mg/kg
Mus musculus [5] = assay: Retention time in (R)-PIA) induced avoidance test (performed in mice) for antagonistic activity after peroral administration of 5 mg/kg; type: functional, organism-based; parameters: dose 5 mg/kg
Mus musculus [6] = assay: Retention time in (R)-PIA) induced avoidance test (performed in mice) for antagonistic activity after peroral administration of 0.08 mg/kg (n=15) (P<0.01); type: functional, organism-based; parameters: dose 0.08 mg/kg
Mus musculus [7] = assay: Retention time in (R)-PIA) induced avoidance test (performed in mice) for antagonistic activity after peroral administration of 0.31 mg/kg (n=15) (P<0.005); type: functional, organism-based; parameters: dose 0.31 mg/kg
Mus musculus [8] = assay: Tested for locomotor activity after oral administration of 10 mg/kg for 120 min; type: functional
Mus musculus [9] = assay: Tested for locomotor activity after oral administration of 40 mg/kg for 120 min; type: functional
Mus musculus [10] = assay: Tested for locomotor activity after oral administration of 6.25 mg/kg for 120 min; type: functional
Rattus norvegicus [11] = assay: Acquisition time in Scopolamine induced avoidance test (performed in rat) for antagonistic activity after peroral administration of 1.25 mg/kg; type: functional; details: route oral
Rattus norvegicus [12] = assay: Acquisition time in Scopolamine induced avoidance test (performed in rat) for antagonistic activity after peroral administration of 5 mg/kg; type: functional; details: route oral
Rattus norvegicus [13] = assay: Acquisition time in Scopolamine induced avoidance test (performed in rat) for antagonistic activity after peroral administration of 0.02 mg/kg (n=13); type: functional; details: route oral
Rattus norvegicus [14] = assay: Acquisition time in Scopolamine induced avoidance test (performed in rat) for antagonistic activity after peroral administration of 0.08 mg/kg (n=13); type: functional; details: route oral
Rattus norvegicus [15] = assay: Acquisition time in Scopolamine induced avoidance test (performed in rat) for antagonistic activity after peroral administration of 0.31 mg/kg (n=13); type: functional; details: route oral
Rattus norvegicus [16] = assay: Retention time in Scopolamine induced avoidance test (performed in rat) for antagonistic activity after peroral administration of 0.02 mg/kg (n=13); type: functional, organism-based; parameters: dose 0.02 mg/kg
Rattus norvegicus [17] = assay: Retention time in Scopolamine induced avoidance test (performed in rat) for antagonistic activity after peroral administration of 0.08 mg/kg (n=13) (P<0.01); type: functional, organism-based; parameters: dose 0.08 mg/kg
Rattus norvegicus [18] = assay: Retention time in Scopolamine induced avoidance test (performed in rat) for antagonistic activity after peroral administration of 0.31 mg/kg (n=13) (P<0.005); type: functional, organism-based; parameters: dose 0.31 mg/kg
Rattus norvegicus [19] = assay: Retention time in Scopolamine induced avoidance test (performed in rat) for antagonistic activity after peroral administration of 5 mg/kg; type: functional, organism-based; parameters: dose 5 mg/kg
Mus musculus [20] = assay: Acquisition time in (R)-PIA) induced avoidance test (performed in mice) for antagonistic activity after peroral administration of 5 mg/kg; type: functional; details: route oral
Adenosine receptor A1 = molecular target: T1, Adenosine receptor A1 (Cavia porcellus, UniProt P47745); assay: Binding affinity against Adenosine A1 receptor from guinea pig forebrain membranes by N6-[3H]- cyclohexyladenosine displacement.
T1 sequence (P47745 whole entry): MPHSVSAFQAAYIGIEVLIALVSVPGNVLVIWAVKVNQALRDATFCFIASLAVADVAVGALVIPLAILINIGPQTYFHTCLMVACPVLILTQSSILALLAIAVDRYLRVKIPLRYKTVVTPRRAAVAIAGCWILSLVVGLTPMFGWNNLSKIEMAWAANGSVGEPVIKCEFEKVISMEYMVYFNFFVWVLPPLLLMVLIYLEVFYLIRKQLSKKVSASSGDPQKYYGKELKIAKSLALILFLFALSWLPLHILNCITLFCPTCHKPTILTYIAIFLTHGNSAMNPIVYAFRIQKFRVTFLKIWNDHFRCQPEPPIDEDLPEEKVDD

[21] = molecular target: Adenosine receptor A1, Rattus norvegicus (UniProt P25099); assay: Binding affinity against Adenosine A1 receptor from rat forebrain membranes with N6-[3H]- cyclohexyladenosine
Sequence of Adenosine receptor A1, Rattus norvegicus (P25099 whole entry, looked up): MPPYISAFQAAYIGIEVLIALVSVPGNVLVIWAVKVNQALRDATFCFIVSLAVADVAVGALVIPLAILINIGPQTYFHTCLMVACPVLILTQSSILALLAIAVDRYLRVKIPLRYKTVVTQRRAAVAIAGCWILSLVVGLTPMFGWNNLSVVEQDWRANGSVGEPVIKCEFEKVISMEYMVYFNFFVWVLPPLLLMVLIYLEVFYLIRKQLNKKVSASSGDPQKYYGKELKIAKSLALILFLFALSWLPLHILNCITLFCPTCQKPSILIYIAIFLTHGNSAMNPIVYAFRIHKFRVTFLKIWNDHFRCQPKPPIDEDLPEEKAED

Question: Which Acquisition time (Mus musculus [1]) does the source give for `CCCn1c(=O)c2[nH]c(C3CCCC3)nc2n(CCC)c1=O` [1,3-DIPROPYL-8-CYCLOPENTYLXANTHINE [DPCPX]] here?
Answer: 19.4 s

Question: What about the Acquisition time (Mus musculus [2]) of the same compound?
Answer: 19.1 s

Question: What about the Acquisition time (Mus musculus [3]) of the same compound?
Answer: 20.5 s

Question: What about the Retention time (Mus musculus [4]) of the same compound?
Answer: 272 s

Question: What about the Retention time (Mus musculus [5]) of the same compound?
Answer: 433 s

Question: What about the Retention time (Mus musculus [6]) of the same compound?
Answer: 190 s

Question: What about the Retention time (Mus musculus [7]) of the same compound?
Answer: 456 s

Question: And the Locomotor activity (Mus musculus [8])?
Answer: 4679 Counts

Question: What about the Locomotor activity (Mus musculus [9]) of the same compound?
Answer: 5257 Counts

Question: And the Locomotor activity (Mus musculus [10])?
Answer: 3826 Counts

Question: And the Acquisition time (Rattus norvegicus [11])?
Answer: 12.4 s

Question: And the Acquisition time (Rattus norvegicus [12])?
Answer: 14.6 s

Question: And the Acquisition time (Rattus norvegicus [13])?
Answer: 19.8 s

Question: And the Acquisition time (Rattus norvegicus [14])?
Answer: 21.5 s

Question: What about the Acquisition time (Rattus norvegicus [15]) of the same compound?
Answer: 24.7 s

Question: And the Retention time (Rattus norvegicus [16])?
Answer: 32 s

Question: What about the Retention time (Rattus norvegicus [17]) of the same compound?
Answer: 105 s

Question: What about the Retention time (Rattus norvegicus [18]) of the same compound?
Answer: 273 s

Question: And the Retention time (Rattus norvegicus [19])?
Answer: 68.7 s

Question: What about the Acquisition time (Mus musculus [20]) of the same compound?
Answer: 18.4 s

Question: How did the pKi (Adenosine receptor A1) turn out when `CCCn1c(=O)c2[nH]c(C3CCCC3)nc2n(CCc2ccc(N)cc2)c1=O` was run?
Answer: 8.25

Question: What about the pKi [21] of the same compound?
Answer: 9.64
